Each structure is given as a SMILES string.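 Method: 48-hour compound exposure of cells in 96-well plates, five concentrations, linear interpolation of endpoints. Definition used: TGI = concentration required for complete inhibition of growth.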 Where a SMILES comes first, the peptide text is derived from it.

These results are taken from PubChem BioAssay (NCI).

Some test systems named below: HCT-15 colon; LOX IMVI melanoma; UACC-62 melanoma; SNB-19 CNS; T-47D breast; HL-60(TB) leukemia; ACHN renal; M14 melanoma; OVCAR-5 ovarian.
Holding throughout (assay): inhibition of tumour cell growth, NCI panel, 48 h

`CCCCCCCCCCOCCOCCOCCOCCCCC(O)CCCCCCCC1=C[C@H](C)OC1=O` (stereo partly specified): the TGI turned out to be 23.9 µM in the assay with HCT-15 colon; 28 µM in the assay with LOX IMVI melanoma; 28.7 µM in the assay on UACC-62 melanoma; 27.2 µM with SNB-19 CNS; 75 µM in the assay on T-47D breast; 15.5 µM in the assay with HL-60(TB) leukemia. For the same compound, the TGI was found to be 36 µM in the assay with ACHN renal, 35.7 µM with M14 melanoma and 30.6 µM with OVCAR-5 ovarian.

Consider `Cc1ccsc1C(=S)Nc1ccc(Cl)c(/C=N/OC(C)C)c1`, for which the TGI in the assay with HCT-15 colon was more than 100 µM; with LOX IMVI melanoma, more than 100 µM; in the assay on UACC-62 melanoma, more than 100 µM; in the assay with SNB-19 CNS it was more than 100 µM; in the assay with T-47D breast it was more than 100 µM; in the assay with HL-60(TB) leukemia it was 34.6 µM. Further, the TGI with ACHN renal, with M14 melanoma and in the assay on OVCAR-5 ovarian was more than 100 µM each time.

Consider `CCOC(=O)N/N=C(\CC)OCC`, for which the TGI with HCT-15 colon, in the assay on LOX IMVI melanoma, in the assay with UACC-62 melanoma, in the assay on SNB-19 CNS, in the assay with T-47D breast and in the assay on HL-60(TB) leukemia was more than 100 µM in each case. Also, the TGI in the assay on ACHN renal, in the assay on M14 melanoma and in the assay on OVCAR-5 ovarian was more than 100 µM throughout.

In the case of `O=C(O)C12CCC(CC1=O)C2` (stereo unspecified), the TGI in the assay on HCT-15 colon, with LOX IMVI melanoma, with UACC-62 melanoma, in the assay on SNB-19 CNS, in the assay on T-47D breast and in the assay with HL-60(TB) leukemia was more than 100 µM in each case. For the same compound, the TGI in the assay with ACHN renal, in the assay with M14 melanoma and with OVCAR-5 ovarian was more than 100 µM in each case.

`Cc1cc2c(cc1Cl)SC(NNC1=NCCN1)=NS2(=O)=O`: the TGI with HCT-15 colon, in the assay on LOX IMVI melanoma, with UACC-62 melanoma, in the assay on SNB-19 CNS, in the assay with T-47D breast and in the assay with HL-60(TB) leukemia was more than 10 µM in each case. Further, the TGI in the assay with ACHN renal, in the assay on M14 melanoma and with OVCAR-5 ovarian was more than 10 µM throughout.

Regarding `C#CCOCn1cc(C)c(=O)[nH]c1=O`, the TGI in the assay on HCT-15 colon, with LOX IMVI melanoma, in the assay with UACC-62 melanoma, in the assay with SNB-19 CNS, with T-47D breast and with HL-60(TB) leukemia was more than 100 µM in each case. The TGI with ACHN renal, in the assay with M14 melanoma and with OVCAR-5 ovarian was more than 100 µM throughout.

`Cc1ccc(C(=O)Oc2ccc(/C=C3\CCC/C(=C\c4ccc(OC(=O)c5ccc(C)cc5)cc4)C3=O)cc2)cc1`: the TGI with HCT-15 colon, with LOX IMVI melanoma, in the assay on UACC-62 melanoma, in the assay on SNB-19 CNS, in the assay on T-47D breast and with HL-60(TB) leukemia was more than 100 µM each time. Also, the TGI in the assay with ACHN renal, in the assay on M14 melanoma and in the assay on OVCAR-5 ovarian was more than 100 µM in each case.

With `CCCC(=O)OC[n+]1ccc(-c2c(COC(=O)NC(C)C)c(COC(=O)NC(C)C)c3n2CCC3)cc1`, the TGI in the assay on HCT-15 colon, in the assay on LOX IMVI melanoma, with UACC-62 melanoma, in the assay on SNB-19 CNS, in the assay on T-47D breast and with HL-60(TB) leukemia was more than 100 µM each time. Also, the TGI in the assay with ACHN renal, in the assay on M14 melanoma and with OVCAR-5 ovarian was more than 100 µM each time.

In the case of `COc1ccc(-c2nc3c(C(=O)NCCN(C)C)cccc3c3ccccc23)cc1`, the TGI came to 9.46 µM in the assay with HCT-15 colon; 2.94 µM in the assay on LOX IMVI melanoma; 4.66 µM with UACC-62 melanoma; 11.7 µM in the assay with SNB-19 CNS; 29.7 µM in the assay on T-47D breast; 7 µM in the assay on HL-60(TB) leukemia. Further, the values for the TGI in the assay with ACHN renal, in the assay on M14 melanoma and with OVCAR-5 ovarian were 12.8 µM, 3.93 µM and 18.2 µM, respectively.

With `CCC(C)C(NC(=O)C(CC(C)C)NC(=O)CNC(=O)C(NC(=O)C1CCCN1C(=O)C(CC(C)C)NC(=O)C(N)Cc1ccccc1)C(C)CC)C(=O)NC(CC(C)C)C(N)=O` (stereo unspecified) (H-FLPIGLIL-NH2; configuration not given here), the TGI in the assay on HCT-15 colon, in the assay on LOX IMVI melanoma, in the assay on UACC-62 melanoma, in the assay on SNB-19 CNS, with T-47D breast and with HL-60(TB) leukemia was more than 75 µM in each case. Also, the TGI with ACHN renal, in the assay on M14 melanoma and in the assay on OVCAR-5 ovarian was more than 75 µM throughout.

For the compound `O=C(Nc1cccc(C(=O)NCCCO)c1)/C(=C/c1ccccc1)NC(=O)c1ccccc1`, the TGI with HCT-15 colon, with LOX IMVI melanoma, with UACC-62 melanoma, in the assay on SNB-19 CNS, in the assay with T-47D breast and in the assay on HL-60(TB) leukemia was more than 100 µM each time. Besides, the TGI in the assay on ACHN renal, in the assay on M14 melanoma and with OVCAR-5 ovarian was more than 100 µM each time.

Regarding `CN(C)c1ccc(/C=C(\NC(=O)c2ccccc2)C(=O)Nc2cccc(C(=O)NCCCO)c2)cc1`, the TGI in the assay with HCT-15 colon, with LOX IMVI melanoma, with UACC-62 melanoma, with SNB-19 CNS, in the assay with T-47D breast and in the assay with HL-60(TB) leukemia was more than 100 µM each time. The TGI with ACHN renal, in the assay with M14 melanoma and in the assay on OVCAR-5 ovarian was more than 100 µM each time.

`O=CN1CCC23CC(O)CCC2C1Cc1cc(Oc2nnnn2-c2ccccc2)cc(O)c13` (stereo unspecified): the TGI with HCT-15 colon, with LOX IMVI melanoma, in the assay on UACC-62 melanoma, with SNB-19 CNS, in the assay with T-47D breast and with HL-60(TB) leukemia was more than 100 µM in each case. Also, the TGI in the assay with ACHN renal, with M14 melanoma and with OVCAR-5 ovarian was more than 100 µM in each case.

In the case of `O=C1/C(=C/c2ccc(O)c(O)c2)CC/C1=C\c1ccc(O)c(O)c1`, the TGI in the assay on HCT-15 colon is more than 100 µM; in the assay with LOX IMVI melanoma, more than 56.1 µM; in the assay on UACC-62 melanoma, 26 µM; with SNB-19 CNS it was 66.4 µM; in the assay on T-47D breast, 63.3 µM; with HL-60(TB) leukemia, more than 46.2 µM. Also, the TGI with ACHN renal was 26.6 µM; with M14 melanoma it was 9.56 µM; in the assay on OVCAR-5 ovarian, more than 100 µM.
